The subject of one assay is Bel-7402. As to the kind of experiment: Cytotoxicity against human Bel7402 cells after 48 hrs by MTT assay. Type of assay: functional, cell-based. Background: Tetrazolium dyes change colour on reduction, which living cells bring about.
A further assay relates to P388. As to the kind of experiment: Cytotoxicity against mouse P388 cells after 48 hrs by MTT assay. The following applies: for IC50: P388, 48 h. Type of assay: functional, cell-based.

SMILES strings stand for the structures. The source made the active and inactive calls. No cut-off for these calls is given here. Residues, ends and D or L forms follow the SMILES beside them.

On to `CC[C@H](C)[C@@H]1NC(=O)[C@H](CC(C)C)NC(=O)[C@@H]2CCCN2C(=O)[C@H](C(C)C)NC(=O)[C@H](Cc2c[nH]c3ccccc23)NC(=O)[C@@H]2CCCN2C(=O)[C@H]([C@@H](C)CC)NC(=O)[C@@H]2CCCN2C1=O` (cyclo(IPIPWVPL)), for which the result with Bel-7402 and in the assay on P388 was inactive.

One may read the IC50 as the concentration needed to halve the response being measured. On to `CC[C@H](C)[C@@H]1NC(=O)[C@H](Cc2c[nH]c3ccccc23)NC(=O)[C@@H]2CCCN2C(=O)[C@H](CC(C)C)NC(=O)[C@@H]2CCCN2C(=O)[C@H]([C@@H](C)O)NC(=O)[C@H](CC(C)C)NC(=O)[C@@H]2CCCN2C1=O` [PHAKELLISTATIN 15] (cyclo(IPLTPLPW)), for which the half-inhibitory concentration (IC50) in the assay with P388 worked out at 8.5 µM. On to `CC(C)[C@@H]1NC(=O)[C@H](C)NC(=O)[C@H](CCCNC(=N)N)NC(=O)[C@H](CO)NC(=O)[C@H](CC(=O)O)NC(=O)[C@H](Cc2ccccc2)NC(=O)[C@@H]2CCCN2C(=O)[C@H](Cc2ccc(O)cc2)NC(=O)[C@H]([C@@H](C)O)NC1=O` [PHAKELLISTATIN 16] (cyclo(AVTYPFDSR)), for which the IC50 with Bel-7402 (Bel-7402, 48 h) was 14.3 µM; in the assay on P388 it was 5.4 µM.

Source of the values: ChEMBL document CHEMBL1157099, “Proline-containing cyclopeptides from the marine sponge Phakellia fusca” (J Nat Prod, 2010).
